The results in this text go back to patent US7745465B2, “Method of enhancing cellular production of molecular chaperone, hydroxylamine derivatives useful for enhancing the chaperone production and the preparation thereof” (CytRx Corporation, priority 1995, dated 2010).

Structures are written as SMILES.

One test deals with Hsp90. The test can be described thus: Western blot of hsp90 in heat shocked H9c2 cells. In kind it is cell-based, rat. As to the method: Experiments set forth in this section were conducted to determine whether N-[2-hydroxy-3-(1-piperidinyl)propoxy]-3-pyridinecarboximidoyl chloride maleate acts to increase the expression of molecular chaperon by a cell. The accumulation of different heat shock proteins subsequent to a period of exposure to heat shock alone, and to heat shock in combination with N-[2-hydroxy-3-(1-piperidinyl)propoxy]-3-pyridinecarboximidoyl chloride maleate administration, was examined by adding 10^−5 M of N-[2-hydroxy-3-(1-piperidinyl)propoxy]-3-pyridinecarboximidoyl chloride maleate before, during, or immediately after hyperthermic treatment of heart myogenic cells (H9c2 cells).
The embryonic rat heart-derived cell line H9c2 was obtained from European Collection of Animal cell Cultures (ECACC) (88092904). The cells were maintained at 37° C. in Dulbecco's modified Eagle's medium (DMEM) supplemented with 10% fetal calf serum (GIBCO) in JOUAN C02 thermostat (5% CO2).
Heat shock was performed at 43° C. in CO2 thermostat for the given time intervals (20, 40, 60, 90 and 120 min.). Cells were then taken back to 37° C. for 6 hours and proteins were extracted for SDS-PAGE. […]
Protein concentration was determined from 5:1 samples by the Bradford assay (M. M. Braford, Anal. Biochem., 72: 248-254 (1976)) in three parallel. […]
(A western blot detects proteins with antibodies after separation by electrophoresis.)

A further test relates to hsp72 gene. The test can be described thus: Northern blot of hsp72 mRNA in rat heart ventricles. In kind it is in vivo. As to the method:
Experiments were carried out in SPRD male rats. Animals were anaesthetized with Nembutal in a dose of 60 mg/kg/i.p. Body temperature of the rats were maintained with an infra lamp placed over the abdomen and the rectal temperature was measured. After a 25-40 minute period the temperature of the rats increased to 42.0-42.2° C. and this temperature was maintained for 15 minutes. After a recovery period (2 hrs), tissue samples were collected from the left and right ventricles.
Experiments were carried out in SPRD male rats. The animals were anaesthetized with Nembutal in a dose of 60 mg/kg/i.p. After opening the chest and pericardium, the LAD coronary artery was occluded for 5 minutes and then the incidence and duration of ventricular tachycardia and fibrillation in the reperfusion period (10 minutes) were investigated. Tissue samples were collected from the left and right ventricles.
Total RNA was extracted using RN Agents kit (Promega) according to the manufacturer's instructions (Protocols and Applications Guide, 2nd edition, 1991, Promega Corporation). […]
Prehybridizations were carried out at 65° C. in H-buffer (0.25M Na2HPO4, pH 7.2, 7% SDS) for 15 minutes. […] The membrane was washed with 20 mM Na2HPO4, pH 7.2, 5% SDS (65 C; 2×15 min.) and evaluated by autoradiography. […]

Turning to `O=C(O)/C=C\C(=O)O.OC(CON=C(Cl)c1cccnc1)CN1CCCCC1` (stereo not shown) [N-[2-hydroxy-3-(1-piperidinyl)-propoxy]3-pyridinecarboximidoyl chloride maleate], the “level of Hsp90 increased” value in the test with Hsp90 (added before the heat stress, 20 min. heat treatment) was “about fivefold”. Besides, the “effect on HSP90 level” value with Hsp90 (added following 43° C. 60 min. treatment) is on record as “as effective (if not more) as if added before high temperature stress”. Moreover, the “expression of hsp72 gene in heart muscle preparations” value with hsp72 gene (100 mg/kg p.o., ischemia) is “highly increased expression of hsp72 gene”. Further, the “activation of the hsp72 gene” value in the test with hsp72 gene (in the absence of stress, compound alone) is given as “unable to activate the hsp72 gene”.
